Test results from patent publication US6852673B2, “Herbicidal pyridine compounds” (BASF Aktiengesellschaft, priority 1998, dated 2005).

Assays:
Format in all cases: in vivo
Hordeum vulgare (HORVW) = test: Pre-emergence herbicidal evaluation, winter barley
In short: (§1)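 Seeds are mixed into potting soil and planted; the pots are sprayed with aqueous acetone containing compound (about 0.0125 to 0.4 kg/ha equivalent); they are kept and watered in a greenhouse; each pot is rated at 2 to 4 weeks.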

[1] = test system: Cassia obtusifolia (CASOB); test: Pre-emergence herbicidal evaluation, sicklepod; conditions: dose 0.4 kg/ha
Description: The pre-emergence herbicidal activity of the compounds of the present invention is exemplified by the following test in which the seeds of a variety of monocotyledonous and dicotyledonous plants are seperately mixed with potting soil and planted on top of approximately one inch of soil in separate pots. After planting, the pots are sprayed with the selected aqueous acetone solution containing test compound in sufficient quantity to provide the equivalent of about 0.0125 to 0.4 kg per hectare of test compound per pot. The treated pots are then placed on greenhouse benches, watered and cared for in accordance with conventional greenhouse procedures. From 2 to 4 weeks after treatment, the tests are terminated and each pot is examined and rated according to the rating system set forth below.

[2] = test system: Ipomoea hederacea (IPOHE); test: Pre-emergence herbicidal evaluation, morning glory
In short: as §1

[3] = test system: Matricaria inodora (MATIN); test: Pre-emergence herbicidal evaluation, mayweed
In short: as §1

Solanum nigrum (SOLNI) = test: Pre-emergence herbicidal evaluation, black nightshade
In short: as §1

[4] = test system: Digitaria sanguinalis (DIGSA); test: Pre-emergence herbicidal evaluation, large crabgrass
In short: as §1

Oryza sativum (ORYSA) = test: Post-emergence herbicidal evaluation, rice; conditions: rated 2 to 4 weeks after treatment
Procedure: (§2) [table] [table] […] These acetone solutions are diluted with water and the resulting formulations applied at dosage levels equivalent of about 0.03 to 0.4 kg per hectare of test compound per pot. After spraying the plants are placed on greenhouse benches and are cared for in the usual manner, commensurate with conventional greenhouse practices. From 2 to 4 weeks after treatment, the seedling plants are examined and rated according to the rating system provided above. A rating 0 indicates growth as untreated control, a rating 9 indicates death.

[5] = test system: Abutilon theophrasti (ABUTH); test: Post-emergence herbicidal evaluation, velvetleaf; conditions: rated 2 to 4 weeks after treatment
Procedure: as §2

[6] = test system: Cassia obtusifolia (CASOB); test: Post-emergence herbicidal evaluation, sicklepod; conditions: rated 2 to 4 weeks after treatment
Procedure: as §2

Galium aparine (GALAP) = test: Post-emergence herbicidal evaluation, cleaver; conditions: rated 2 to 4 weeks after treatment
Procedure: as §2

weeds = test: Post-emergence herbicidal evaluation, overall weed control; conditions: in barley at crop selective doses
Procedure: as §2

SMILES | HORVW rating (Hordeum vulgare (HORVW); dose 0.013 kg/ha) | HORVW rating (Hordeum vulgare (HORVW); dose 0.025 kg/ha) | HORVW rating (Hordeum vulgare (HORVW); dose 0.1 kg/ha) | HORVW rating (Hordeum vulgare (HORVW); dose 0.4 kg/ha) | IPOHE rating ([2]; dose 0.013 kg/ha) | IPOHE rating ([2]; dose 0.025 kg/ha) | IPOHE rating ([2]; dose 0.1 kg/ha) | IPOHE rating ([2]; dose 0.4 kg/ha) | MATIN rating ([3]; dose 0.1 kg/ha) | MATIN rating ([3]; dose 0.4 kg/ha) | SOLNI rating (Solanum nigrum (SOLNI); dose 0.013 kg/ha) | SOLNI rating (Solanum nigrum (SOLNI); dose 0.025 kg/ha) | SOLNI rating (Solanum nigrum (SOLNI); dose 0.1 kg/ha) | SOLNI rating (Solanum nigrum (SOLNI); dose 0.4 kg/ha) | DIGSA rating ([4]; dose 0.013 kg/ha) | DIGSA rating ([4]; dose 0.025 kg/ha) | DIGSA rating ([4]; dose 0.1 kg/ha) | DIGSA rating ([4]; dose 0.4 kg/ha) | ORYSA rating (Oryza sativum (ORYSA); dose 0.1 kg/ha) | ORYSA rating (Oryza sativum (ORYSA); dose 0.4 kg/ha) | further results
Cc1cc(OCC(F)(F)C(F)F)nc(Oc2cc(C(F)(F)F)nn2C)c1 [Example 6] | 0 (0 - No effect) | 0 (0 - No effect) | 2 (2 - Slight effect) | 3 (3 - Moderate effect) | 0 (0 - No effect) | 1 (1 - Trace effect) | 2 (2 - Slight effect) | 8 (8 - Approaching complete kill) | 9 (9 - Complete kill) | 9 (9 - Complete kill) | 4 (4 - Injury) | 4 (4 - Injury) | 8 (8 - Approaching complete kill) | 9 (9 - Complete kill) | 1 (1 - Trace effect) | 2 (2 - Slight effect) | 9 (9 - Complete kill) | 9 (9 - Complete kill) | 1 (1 - Trace effect) | 1 (1 - Trace effect) | CASOB rating [1]: 9 (9 - Complete kill); ORYSA rating (Oryza sativum (ORYSA); dose 0.25 kg/ha): 1 (1 - Trace effect); ABUTH rating ([5]; dose 0.1 kg/ha): 4 (4 - Injury); ABUTH rating ([5]; dose 0.25 kg/ha): 2 (2 - Slight effect); ABUTH rating ([5]; dose 0.4 kg/ha): 6 (6 - Herbicidal effect); CASOB rating ([6]; dose 0.25 kg/ha): 4 (4 - Injury); CASOB rating ([6]; dose 0.4 kg/ha): 6 (6 - Herbicidal effect); GALAP rating (Galium aparine (GALAP); dose 0.1 kg/ha): 6 (6 - Herbicidal effect); GALAP rating (Galium aparine (GALAP); dose 0.25 kg/ha): 3 (3 - Moderate effect); GALAP rating (Galium aparine (GALAP); dose 0.4 kg/ha): 7 (7 - Good herbicidal effect); broad-leaved weed control (weeds): effective
Cc1cc(OCC(F)(F)C(F)(F)C(F)(F)C(F)F)nc(Oc2cc(C(F)(F)F)nn2C)c1 [Example 8] | 0 (0 - No effect) | 1 (1 - Trace effect) | 3 (3 - Moderate effect) | 4 (4 - Injury) | 2 (2 - Slight effect) | 2 (2 - Slight effect) | 9 (9 - Complete kill) | 9 (9 - Complete kill) | 9 (9 - Complete kill) | 9 (9 - Complete kill) | 1 (1 - Trace effect) | 3 (3 - Moderate effect) | 8 (8 - Approaching complete kill) | 8 (8 - Approaching complete kill) | 1 (1 - Trace effect) | 2 (2 - Slight effect) | 9 (9 - Complete kill) | 9 (9 - Complete kill) | 2 (2 - Slight effect) | 2 (2 - Slight effect) | MATIN rating ([3]; dose 0.013 kg/ha): 8 (8 - Approaching complete kill); MATIN rating ([3]; dose 0.025 kg/ha): 8 (8 - Approaching complete kill); ORYSA rating (Oryza sativum (ORYSA); dose 0.03 kg/ha): 1 (1 - Trace effect); ABUTH rating ([5]; dose 0.03 kg/ha): 1 (1 - Trace effect); ABUTH rating ([5]; dose 0.1 kg/ha): 5 (5 - Definite injury); ABUTH rating ([5]; dose 0.4 kg/ha): 7 (7 - Good herbicidal effect); CASOB rating ([6]; dose 0.03 kg/ha): 2 (2 - Slight effect); CASOB rating ([6]; dose 0.1 kg/ha): 7 (7 - Good herbicidal effect); CASOB rating ([6]; dose 0.4 kg/ha): 7 (7 - Good herbicidal effect); GALAP rating (Galium aparine (GALAP); dose 0.03 kg/ha): 5 (5 - Definite injury); GALAP rating (Galium aparine (GALAP); dose 0.1 kg/ha): 7 (7 - Good herbicidal effect); GALAP rating (Galium aparine (GALAP); dose 0.4 kg/ha): 8 (8 - Approaching complete kill); broad-leaved weed control (weeds): effective
